Common to all, as to assay type: biochemical
For experiment [1], the target named is T1, Aβ 1-42 fibrils (Homo sapiens, UniProt P05067).
T1 construct: purchased Bachem Inc
Kind of experiment: Thioflavin T fluorometry - disruption of pre-formed Aβ 1-42 Alzheimer's fibrils. The note with it: 25 μM pre-fibrillized Aβ 1-42, 37° C., 3 days, read-out: % Inhibition Aβ (result ± S.D.). The source says:
In one study, Thioflavin T fluorometry was used to determine the effects of the compounds, and of EDTA (as a negative control). In this assay Thioflavin T binds specifically to fibrillar amyloid, and this binding produces a fluorescence enhancement at 485 nm that is directly proportional to the amount of amyloid fibrils formed. The higher the fluorescence, the greater the amount of amyloid fibrils formed (Naki et al., Lab. Invest. 65:104-110, 1991; Levine III, Protein Sci. 2:404-410, 1993; Amyloid: Int. J. Exp. Clin. Invest. 2:1-6, 1995).
(§1) In this study, 25 μM of pre-fibrillized Aβ 1-42 (Bachem Inc) was incubated at 37° C. for 3 days either alone, or in the presence of one of the compounds or EDTA (at Aβ:test compound weight ratios of 1:1, 1:0.1, 1:0.01 or 1:0.001). Following 3-days of co-incubation, 50 μl of each incubation mixture was transferred into a 96-well microtiter plate containing 150 μl of distilled water and 50 μl of a Thioflavin T solution (i.e. 500 mM Thioflavin T in 250 mM phosphate buffer, pH 6.8). The fluorescence was read at 485 nm (444 nm excitation wavelength) using an ELISA plate fluorometer after subtraction with buffer alone or compound alone, as blank.

Experiment [2] deals with T1, Aβ 1-42 fibrils. Kind of experiment: Circular dichroism spectroscopy of Aβ 1-42 fibrils. Conditions: for disruption of β-sheet structure in Aβ 1-42 fibrils (CD minima at 218 nm): 3 days co-incubation, 25 μM Aβ 1-42 (FIG. 1, FIG. 2); for dose-response of disruption of β-sheet structure of Aβ 1-42 fibrils (CD minima at 218 nm): Aβ:test compound wt/wt ratios of 1:0.1, 1:1 and 1:10 (FIG. 3). Here is the method: Circular dichroism (CD) spectroscopy is a method that can be used to determine the effects of test compounds to disrupt the secondary structure conformation of amyloid fibrils. In one study, as described in this example, circular dichroism spectroscopy was used to determine the effects of different compounds of the invention on β-sheet conformation of Aβ 1-42 fibrils. For this study, Aβ 1-42 (Bachem Inc., Torrance, Calif.) was first dissolved in a 2 mM NaOH solution, maintaining the pH of these solutions above 10. […] Aβ 1-42 was then incubated at 37° C. in the absence or presence of different compounds at an Aβ:test compound wt/wt ratios of 1:0.1, 1:1 and 1:10. After 3 days of incubation, CD spectra were recorded on a Jasco 810 spectropolarimeter (Easton, Md.). All CD spectra were collected with 0.05 cm quartz cells. Wavelength traces were scanned from 190-260 nm at 0.5 nm increments with a bandwidth of 5 nm, at a scan speed of 10 nm/minute, a response time of 32 seconds, and a data pitch of 0.5 nm. The whole system was equilibrated and continuously flushed with nitrogen at 10 ml/minute. […] Ellipticity in degrees was converted to MRE ([Q]; molar residue ellipticity) using the formula [Q]=100•[…]; where Q is the ellipticity in degrees; […]

Experiment [3] concerns the target T2, IAPP fibrils (Homo sapiens, UniProt P10997).
T2 construct: purchased Bachem Inc
T2 sequence (P10997 34-70 limits assumed): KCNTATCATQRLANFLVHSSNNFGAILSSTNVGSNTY
The experiment is described as follows: Congo red binding assay with IAPP fibrils. Conditions: 3-day incubation. On the procedure: (§2) In the Congo red binding assay the ability of a given test compound to alter amyloid (in this case, IAPP) binding to Congo red is quantified. In this assay, IAPP and test compounds were incubated for 3 days and then vacuum filtered through a 0.2 μm filter. The amount of IAPP retained in the filter was then quantitated following staining of the filter with Congo red. After appropriate washing of the filter, any lowering of the Congo red color on the filter in the presence of the test compound (compared to the Congo red staining of the amyloid protein in the absence of the test compound) was indicative of the test compound's ability to diminish/alter the amount of aggregated and congophilic IAPP.
In the study, the ability of IAPP fibrils to bind Congo red in the absence or presence of increasing amounts of the compounds or EDTA (at IAPP:test compound weight ratios of 1:1, 1:0.1, 1:0.01 or 1:0.001) was determined.

The target in experiment [4] is T2, IAPP fibrils. Kind of experiment: Thioflavin T fluorometry - disruption of type 2 diabetes IAPP fibrils. The note with it: 25 μM pre-fibrillized IAPP, 37° C., 3 days, read-out: % Inhibition IAPP (result ± S.D.). Here is the method:
In this assay Thioflavin T binds specifically to fibrillar amyloid, and this binding produces a fluorescence enhancement at 485 nm that is directly proportional to the amount of IAPP fibrils present. The higher the fluorescence, the greater the amount of IAPP fibrils present (Naki et al, Lab. Invest. 65:104-110, 1991; Levine III, Protein Sci. 2:404-410, 1993; Amyloid: Int. J. Exp. Clin. Invest. 2:1-6, 1995).
as §1, with “IAPP” for “Aβ 1-42”, “IAPP:test” for “Aβ:test”

In another experiment the target is T3, monomeric Aβ 1-42 (Homo sapiens, UniProt P05067).
T3 construct: purchased Bachem Inc
The experiment is described as follows: SDS-PAGE/Western blot of Aβ 1-42 after incubation with compounds. Conditions: 25 μM pre-fibrillized Aβ 1-42, 37° C., 3 days, 0.2 μm filtrate, antibody 6E10. Here is the method: In this latter study, triplicate samples of pre-fibrillized Aβ 1-42 (25 μM) was incubated at 37° C. for 3 days, alone or in the presence of the compounds or EDTA. Five micrograms of each sample was then filtered through a 0.2 μm filter. Protein recovered from the filtrate was then loaded, and ran on a 10-20% Tris-Tricine SDS-PAGE, blotted to nitrocellulose and detected using an Aβ-antibody (clone 6E10; Senetek).
Background: A western blot detects proteins with antibodies after separation by electrophoresis.

Experiment [5] addresses T1, Aβ 1-42 fibrils. Kind of experiment: Congo red binding assay with Aβ 1-42 fibrils. The note with it: 3-day incubation. Here is the method: as §2, with “a” for “a given”, “Aβ)” for “IAPP)”, “Aβ 1-42” for “IAPP”, “Aβ.” for “IAPP.”
In one study, the ability of Aβ fibrils to bind Congo red in the absence or presence of increasing amounts of the compounds or EDTA (at Aβ:test compound weight ratios of 1:1, 1:0.1, 1:0.01 or 1:0.001) was determined.

The mark [6] stands for this setting: Aβ:test compound wt/wt ratio 1:0.001.
The mark [7] stands for this setting: Aβ:test compound wt/wt ratio 1:0.01.
Where [8] appears, read: Aβ:test compound wt/wt ratio 1:0.1.
Where [9] appears, read: Aβ:test compound wt/wt ratio 1:1.
The mark [10] stands for this setting: IAPP:test compound wt/wt ratio 1:0.001.
[11] abbreviates: IAPP:test compound wt/wt ratio 1:0.01.
[12] abbreviates: IAPP:test compound wt/wt ratio 1:0.1.
[13] abbreviates: IAPP:test compound wt/wt ratio 1:1.

Read-outs that look alike come from different tables or passages of the source.

T1 sequence (P05067 672-713): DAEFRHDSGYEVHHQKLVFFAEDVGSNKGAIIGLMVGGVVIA
T3 sequence (P05067 672-713): as above

As usually defined, the inhibition is the relative decrease from the control value, in per cent. `O=C(C=Cc1ccc(O)c(O)c1)NCc1ccc(O)c(O)c1` [Compound 61, 3,4-dihydroxycinnamic acid 3,4-dihydroxybenzylamide]: the inhibition on Aβ 1-42 fibrils [1] (setting [6]) came to 26 ± 7.51%; at Aβ 1-42 fibrils [1] (setting [7]) it was 16.9 ± 1.39%; on Aβ 1-42 fibrils [1] (setting [8]) it was 80.1 ± 4.76%; on Aβ 1-42 fibrils [1] (setting [9]), 100 ± 0.41%; on IAPP fibrils [4] (setting [10]), 0.5 ± 6.33%; at IAPP fibrils [4] (setting [11]), 35.4 ± 5.68%. In addition, the inhibition turned out to be 83.6 ± 1.27% at IAPP fibrils [4] (setting [12]) and 96.8 ± 0.47% at IAPP fibrils [4] (setting [13]). In addition, the “disruption of β-sheet structure in Aβ 1-42 fibrils (CD minima at 218 nm)” value on Aβ 1-42 fibrils [2] was “marked disruption of β-sheet structure”. In addition, the “dose-response of disruption of β-sheet structure of Aβ 1-42 fibrils (CD minima at 218 nm)” value at Aβ 1-42 fibrils [2] was “dose-dependent decrease in the minima”. The “% Inhibition IAPP (result ± S.D.), Congo red binding” value (“% Inhibition IAPP” below) is 0.0 ± 3.87% on IAPP fibrils [3] (setting [10]), 4.0 ± 1.78% on IAPP fibrils [3] (setting [11]), 0.0 ± 7.07% at IAPP fibrils [3] (setting [12]) and 23.7 ± 0.39% at IAPP fibrils [3] (setting [13]).
`Oc1ccc(CN[C@@H]2CCCC[C@H]2NCc2ccc(O)c(O)c2)cc1O` (relative stereo) [Compound 12, N,N′-bis(3,4-dihydroxybenzyl)-trans-1,2-diaminocyclohexane]: the inhibition worked out at 0% at Aβ 1-42 fibrils [1] (setting [6]); 10.8 ± 21.9% at Aβ 1-42 fibrils [1] (setting [7]); 82 ± 1.13% at Aβ 1-42 fibrils [1] (setting [8]); 99.7 ± 0.17% at Aβ 1-42 fibrils [1] (setting [9]); 13 ± 10.3% on IAPP fibrils [4] (setting [10]); 37.5 ± 0.76% at IAPP fibrils [4] (setting [11]). The inhibition at IAPP fibrils [4] (setting [12]) was determined as 86 ± 0.76%; at IAPP fibrils [4] (setting [13]), 99.9 ± 0.19%. On Aβ 1-42 fibrils [2], the “disruption of β-sheet structure in Aβ 1-42 fibrils (CD minima at 218 nm)” value is on record as “marked disruption of β-sheet structure”. The “dose-response of disruption of β-sheet structure of Aβ 1-42 fibrils (CD minima at 218 nm)” value on Aβ 1-42 fibrils [2] is on record as “dose-dependent decrease in the minima”. The “% Inhibition IAPP” value on IAPP fibrils [3] (setting [10]) was found to be 0.0 ± 2.40%; at IAPP fibrils [3] (setting [11]), 6.9 ± 2.45%; at IAPP fibrils [3] (setting [12]), 8.3 ± 0.85%; on IAPP fibrils [3] (setting [13]), 39.8 ± 0.26%.
In the case of `O=C(NCCc1ccc(O)c(O)c1)Nc1ccc(O)c(O)c1` [Compound 78, 1-(3,4-dihydroxyphenyl)-3-(3,4-dihydroxyphenethyl)urea], the inhibition was 22.4 ± 5.63% on Aβ 1-42 fibrils [1] (setting [6]); 57.8 ± 4.63% at Aβ 1-42 fibrils [1] (setting [7]); 89.7 ± 1.8% at Aβ 1-42 fibrils [1] (setting [8]); 100 ± 0.78% at Aβ 1-42 fibrils [1] (setting [9]); 15.3 ± 4.73% on IAPP fibrils [4] (setting [10]); 58.3 ± 1.2% at IAPP fibrils [4] (setting [11]). Moreover, the results for the inhibition at IAPP fibrils [4] (setting [12]) and on IAPP fibrils [4] (setting [13]) were 92.4 ± 0.27% and 99.5 ± 0.26%, respectively. Besides, on Aβ 1-42 fibrils [2], the “disruption of β-sheet structure in Aβ 1-42 fibrils (CD minima at 218 nm)” value is recorded as “marked decrease in the minima”. In addition, on monomeric Aβ 1-42, the “detection of Aβ 1-42 monomers (~4 kilodalton band) on Western blot” value is on record as “not detected”. Moreover, the “% Inhibition IAPP” value on IAPP fibrils [3] (setting [10]) is on record as 6.6 ± 3.04%; at IAPP fibrils [3] (setting [11]), 19.9 ± 2.12%; on IAPP fibrils [3] (setting [12]), 16.7 ± 6.80%; at IAPP fibrils [3] (setting [13]), 56.3 ± 5.32%.
With `Oc1ccc(CCc2ccc(O)c(O)c2)cc1O` [Compound 4, 1,2-bis(3,4-dihydroxyphenyl)ethane], the inhibition at Aβ 1-42 fibrils [1] (setting [6]) was 26.8 ± 4.8%; on Aβ 1-42 fibrils [1] (setting [8]), 97.4 ± 0.4%; on Aβ 1-42 fibrils [1] (setting [9]), 98.5 ± 0.77%; at IAPP fibrils [4] (setting [10]) it was 17.3 ± 4.07%; at IAPP fibrils [4] (setting [11]), 63.2 ± 2.09%; at IAPP fibrils [4] (setting [12]), 96 ± 1%. Also, at IAPP fibrils [4] (setting [13]), the inhibition is 99.7 ± 0.23%. The “disruption of β-sheet structure in Aβ 1-42 fibrils (CD minima at 218 nm)” value on Aβ 1-42 fibrils [2] is “marked disruption of β-sheet structure”. The “detection of Aβ 1-42 monomers (~4 kilodalton band) on Western blot” value on monomeric Aβ 1-42 is recorded as “not detected”. Further, the “% Inhibition Aβ (result ± S.D.), Congo red binding” value on Aβ 1-42 fibrils [5] (setting [7]) stood at 16.4 ± 2.02%; at Aβ 1-42 fibrils [5] (setting [8]) it was 46.8 ± 1.28%; on Aβ 1-42 fibrils [5] (setting [9]) it was 73.0 ± 0.90%. Also, the “% Inhibition IAPP” value on IAPP fibrils [3] (setting [10]) was 0.0 ± 1.05%; at IAPP fibrils [3] (setting [12]), 25.4 ± 4.68%; on IAPP fibrils [3] (setting [13]) it was 68.9±1.22%.

These data come from patent US20070276034A1, “Compounds, compositions and methods for the treatment of synucleinopathies” (priority 2002, published 2007).
